Experimental data from US7572765B2, “Conformationally constrained parathyroid hormone (PTH) analogs” (The General Hospital Corporation, priority 2001, dated 2009).
Square brackets hold non-standard residues; d marks the D form. Peptide text beside a SMILES is read from it. hArg = N=C(N)NCCCC[C@H](N)C(=O)O; Aib = CC(C)(N)C(=O)O

These compounds were tested against T1, human P1R (Homo sapiens, UniProt Q03431) (assay: cAMP stimulation in HKRK-B28 cells). Settings: basal 4.0 ± 0.1 pmole/well not subtracted.
T1 construct: expressed in transfected cells; host or cells: HKRK-B28 (porcine kidney LLC-PK1, stably transfected)
T1 sequence (Q03431 27-593): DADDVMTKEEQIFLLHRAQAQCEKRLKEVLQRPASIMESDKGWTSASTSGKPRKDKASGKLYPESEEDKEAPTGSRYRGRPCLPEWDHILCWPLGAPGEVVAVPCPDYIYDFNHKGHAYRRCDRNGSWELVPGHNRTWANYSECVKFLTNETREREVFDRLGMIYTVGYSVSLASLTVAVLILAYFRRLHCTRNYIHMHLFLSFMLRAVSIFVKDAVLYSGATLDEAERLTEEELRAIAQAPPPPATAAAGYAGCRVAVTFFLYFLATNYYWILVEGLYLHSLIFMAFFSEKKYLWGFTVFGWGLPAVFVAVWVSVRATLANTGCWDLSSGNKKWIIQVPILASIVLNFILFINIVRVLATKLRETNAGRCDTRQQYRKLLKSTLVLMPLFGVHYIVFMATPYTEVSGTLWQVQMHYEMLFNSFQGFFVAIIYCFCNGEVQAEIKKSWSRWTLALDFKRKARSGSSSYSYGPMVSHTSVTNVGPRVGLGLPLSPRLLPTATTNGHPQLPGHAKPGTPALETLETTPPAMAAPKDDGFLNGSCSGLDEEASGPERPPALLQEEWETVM
Assay type: cell-based
Protocol: Cell Culture. The cell line HKRK-B28 (Takasu, H., et al., J. Bone Miner. Res. 14:11-20 (1999)) was derived from the porcine kidney cell line, LLC-PK1 by stable transfection with plasmid DNA encoding the human P1R and expresses ˜280,000 receptors per cell. These cells, as well as COS-7 cells and SaOS-2-B10 cells, were cultured at […] in T-75 flasks ([…]) in Dulbecco's modified Eagle's medium (DMEM) supplemented with fetal bovine serum (10%), penicillin G (20 units/ml), streptomycin sulfate (20 μg/ml) and amphotericin B (0.05 μg/ml) in a humidified atmosphere containing 5% CO2. Stock solutions of EGTA/trypsin and antibiotics were from GIBCO; fetal bovine serum was from Hyclone Laboratories (Logan, Utah). COS-7 cells sub-cultured in 24-well plates were transfected with plasmid DNA (200 ng per well) encoding the wild-type human P1R or truncated human P1R deleted for residues (24-181) (Shimizu, M., et al., J. Biol. Chem. 275:21836-21843 (2000)) that was purified by cesium chloride/ethidium bromide density gradient centrifugation, and FuGENE 6 transfection reagent (Roche Indianapolis Ind.) according to the manufacturer's recommended procedure. All cells, in 24-well plates, were treated with fresh media and shifted to 33° C. for 12 to 24 h prior to assay.
cAMP Stimulation. Stimulation of cells with peptide analogs was performed in 24-well plates. Cells were rinsed with 0.5 mL of binding buffer (50 mM Tris-HCI, […], 5 mM KCl, 2 mM CaCl2, 5% heat-inactivated horse serum, 0.5% fetal bovine serum, adjusted to pH 7.5 with HCl) and treated with 200 μL of cAMP assay buffer (Delbecco's modified Eagle's medium containing 2 mM 3-isobutyl-1-methylxanthine, 1 mg/mL bovine serum albumin, 35 mM Hepes-NaOH, pH 7.4) and 100 μL of binding buffer containing varying amounts of peptide analog (final volume=300 μL). The medium was removed after incubation for 30 to 60 minutes at room temperature, and the cells were frozen on dry ice, lysed with 0.5 mL 50 mM HCl, and refrozen ([…]). The cAMP content of the diluted lysate was determined by radioimmunoassay. The EC50 response values were calculated using nonlinear regression (see below).
Data Calculation. Calculations were performed using Microsoft® Excel. Nonlinear regression analyses of binding and cAMP dose-response data were performed using the four-parameter equation: yp=Min+[(Max−Min)/(1+(IC50/x)^slope)]. The Excel Solver function was utilized for parameter optimization, as described previously (Carter, P. H., et al., Endocrinology 140: 4972-4981 (1999); Bowen, W. P., and Jerman, J. C., Trends in Pharmacol. Sci. 16: 413-417 (1995)). Differences between paired data sets were statistically evaluated using a one-tailed Student's t-test, assuming unequal variances for the two sets.

Compared with `CC[C@H](C)[C@H](NC(=O)[C@H](CCC(=O)O)NC(=O)[C@H](C)NC(=O)[C@@H](NC(=O)[C@H](C)N)C(C)C)C(=O)N[C@@H](CCC(N)=O)C(=O)N[C@@H](CC(C)C)C(=O)N[C@@H](CCSC)C(=O)N[C@@H](Cc1c[nH]cn1)C(=O)N[C@@H](CCC(N)=O)C(=O)N[C@@H](CCCCNC(=N)N)C(=O)N[C@@H](C)C(=O)NC(C)(C)C(=O)N[C@@H](Cc1c[nH]c2ccccc12)C(N)=O` [Aib-13] (H-AVAEIQLMHQ[hArg]A[Aib]W-NH2), `CC[C@H](C)[C@H](NC(=O)[C@H](CCC(=O)O)NC(=O)[C@H](C)NC(=O)[C@@H](NC(=O)[C@H](C)N)C(C)C)C(=O)NC(C)(C)C(=O)N[C@@H](CC(C)C)C(=O)N[C@@H](CCSC)C(=O)N[C@@H](Cc1c[nH]cn1)C(=O)N[C@@H](CCC(N)=O)C(=O)N[C@@H](CCCCNC(=N)N)C(=O)N[C@@H](C)C(=O)N[C@@H](CCCCN)C(=O)N[C@@H](Cc1c[nH]c2ccccc12)C(N)=O` [Aib-6] (H-AVAEI[Aib]LMHQ[hArg]AKW-NH2) is lower in “cAMP EMax(obs.)” value: 259 ± 10 pmole/well for the first, 116 ± 12 pmole/well for the second.

`CC[C@H](C)[C@H](NC(=O)C(C)(C)NC(=O)[C@H](C)NC(=O)[C@@H](NC(=O)[C@H](C)N)C(C)C)C(=O)N[C@@H](CCC(N)=O)C(=O)N[C@@H](CC(C)C)C(=O)N[C@@H](CCSC)C(=O)N[C@@H](Cc1c[nH]cn1)C(=O)N[C@@H](CCC(N)=O)C(=O)N[C@@H](CCCCNC(=N)N)C(=O)N[C@@H](C)C(=O)N[C@@H](CCCCN)C(=O)N[C@@H](Cc1c[nH]c2ccccc12)C(N)=O` [Aib-4] (H-AVA[Aib]IQLMHQ[hArg]AKW-NH2) and `CC[C@H](C)[C@H](NC(=O)[C@H](CCC(=O)O)NC(=O)[C@H](C)NC(=O)[C@@H](NC(=O)[C@H](C)N)C(C)C)C(=O)N[C@@H](CCC(N)=O)C(=O)N[C@@H](CC(C)C)C(=O)N[C@@H](CCSC)C(=O)N[C@@H](Cc1c[nH]cn1)C(=O)NC(C)(C)C(=O)N[C@@H](CCCCNC(=N)N)C(=O)N[C@@H](C)C(=O)N[C@@H](CCCCN)C(=O)N[C@@H](Cc1c[nH]c2ccccc12)C(N)=O` [Aib-10] (H-AVAEIQLMH[Aib][hArg]AKW-NH2) are within error of each other in “cAMP EMax(obs.)” value: 221 ± 10 pmole/well for the first, 214 ± 22 pmole/well for the second.

`CC[C@H](C)[C@H](NC(=O)[C@H](CCC(=O)O)NC(=O)[C@H](C)NC(=O)[C@@H](NC(=O)[C@H](C)N)C(C)C)C(=O)N[C@@H](CCC(N)=O)C(=O)NC(C)(C)C(=O)N[C@@H](CCSC)C(=O)N[C@@H](Cc1c[nH]cn1)C(=O)N[C@@H](CCC(N)=O)C(=O)N[C@@H](CCCCNC(=N)N)C(=O)N[C@@H](C)C(=O)N[C@@H](CCCCN)C(=O)N[C@@H](Cc1c[nH]c2ccccc12)C(N)=O` [Aib-7] (H-AVAEIQ[Aib]MHQ[hArg]AKW-NH2) and `CC[C@H](C)[C@H](NC(=O)[C@H](CCC(=O)O)NC(=O)[C@H](C)NC(=O)[C@@H](NC(=O)[C@H](C)N)C(C)C)C(=O)N[C@@H](CCC(N)=O)C(=O)N[C@@H](CC(C)C)C(=O)N[C@@H](CCSC)C(=O)N[C@@H](Cc1c[nH]cn1)C(=O)N[C@@H](CCC(N)=O)C(=O)N[C@@H](CCCCNC(=N)N)C(=O)NC(C)(C)C(=O)N[C@@H](CCCCN)C(=O)N[C@@H](Cc1c[nH]c2ccccc12)C(N)=O` [Aib-12] (H-AVAEIQLMHQ[hArg][Aib]KW-NH2) are within error of each other in “cAMP EMax(obs.)” value: 275 ± 8 pmole/well for the first, 263 ± 9 pmole/well for the second.

`CC[C@H](C)[C@H](NC(=O)[C@H](CCC(=O)O)NC(=O)[C@H](C)NC(=O)[C@@H](NC(=O)[C@H](C)N)C(C)C)C(=O)N[C@@H](CCC(N)=O)C(=O)N[C@@H](CC(C)C)C(=O)N[C@@H](CCSC)C(=O)N[C@@H](Cc1c[nH]cn1)C(=O)N[C@@H](CCC(N)=O)C(=O)N[C@@H](CCCCNC(=N)N)C(=O)N[C@@H](C)C(=O)N[C@@H](CCCCN)C(=O)NC(C)(C)C(N)=O` [Aib-14] (H-AVAEIQLMHQ[hArg]AK[Aib]-NH2) was tested, and the “cAMP EMax(obs.)” value was 273 ± 6 pmole/well.
